Source: ChEMBL document CHEMBL4359901, “Cyclic enaminone as new chemotype for selective cyclooxygenase-2 inhibitory, anti-inflammatory, and analgesic activities” (Eur J Med Chem, 2019)
One block for each compound: values may come before it.

Legend:
[1] = biological target: Prostaglandin G/H synthase 1 (Ovis aries) (UniProt P05979); experiment: Inhibition of ovine COX1 assessed as reduction in PGF2alpha at 10 uM incubated for 2 mins using arachidonic acid as substrate by ELISA relative to control
[2] = biological target: Prostaglandin G/H synthase 2 (Homo sapiens) (UniProt P35354); experiment: Inhibition of recombinant human COX2 assessed as reduction in PGF2alpha at 10 uM incubated for 2 mins using arachidonic acid as substrate by ELISA relative to control
Rattus norvegicus [3] = experiment: Analgesic activity in Wistar albino rat assessed as reaction time at 25 mg/kg, ip measured after 120 mins for 15 secs by hot plate method (reference value: 4.32 +/- 0.52 sec); assay type: functional
Rattus norvegicus [4] = experiment: Antiinflammatory activity in Wistar albino rat assessed as reduction in carrageenan-induced paw volume at 12.5 mg/kg, ip measured after 1 hr by plethysmometric method (reference value: 1.43 +/- 0.19 ml); assay type: functional
Rattus norvegicus [5] = experiment: Analgesic activity in Wistar albino rat assessed as reaction time at 12.5 mg/kg, ip measured after 60 mins for 15 secs by hot plate method (reference value: 4.67 +/- 0.52 sec); assay type: functional
Rattus norvegicus [6] = experiment: Antiinflammatory activity in Wistar albino rat assessed as reduction in carrageenan-induced paw edema at 25 mg/kg, ip measured after 3 hrs by plethysmometric method (reference value: 1.75 +/- 0.33 ml); assay type: functional
Rattus norvegicus [7] = experiment: Analgesic activity in Wistar albino rat assessed as reaction time at 12.5 mg/kg, ip measured after 120 mins for 15 secs by hot plate method (reference value: 4.32 +/- 0.52 sec); assay type: functional
Rattus norvegicus [8] = experiment: Antiinflammatory activity in Wistar albino rat assessed as reduction in carrageenan-induced paw edema at 25 mg/kg, ip measured after 1 hr by plethysmometric method (reference value: 1.43 +/- 0.19 ml); assay type: functional
Rattus norvegicus [9] = experiment: Analgesic activity in Wistar albino rat assessed as reaction time at 25 mg/kg, ip measured after 60 mins for 15 secs by hot plate method (reference value: 4.67 +/- 0.52 sec); assay type: functional
Rattus norvegicus [10] = experiment: Analgesic activity in Wistar albino rat assessed as reaction time at 25 mg/kg, ip measured after 180 mins for 15 secs by hot plate method (reference value: 3.87 +/- 0.38 sec); assay type: functional
Rattus norvegicus [11] = experiment: Antiinflammatory activity in Sprague-Dawley rat model of carrageenan-induced thermal hyperalgesia assessed as paw withdrawal latency pressure at 50 mg/kg, po administered 1 hr prior to carrageenan challenge and measured after 3 hrs by Von-frey test (reference value: 31.65 +/- 3.33 g); assay type: functional
Rattus norvegicus [12] = experiment: Analgesic activity in Wistar albino rat assessed as reaction time at 25 mg/kg, ip measured after 30 mins for 15 secs by hot plate method (reference value: 4.21 +/- 0.41 sec); assay type: functional
Rattus norvegicus [13] = experiment: Antiinflammatory activity in Wistar albino rat assessed as reduction in carrageenan-induced paw volume at 12.5 mg/kg, ip measured after 3 hrs by plethysmometric method (reference value: 1.75 +/- 0.33 ml); assay type: functional
Rattus norvegicus [14] = experiment: Antiinflammatory activity in Sprague-Dawley rat model of carrageenan-induced thermal hyperalgesia assessed as paw withdrawal latency pressure at 50 mg/kg, po administered 1 hr prior to carrageenan challenge and measured after 2 hrs by Von-frey test (reference value: 146.47 +/- 5.12 g); assay type: functional
Rattus norvegicus [15] = experiment: Analgesic activity in Wistar albino rat assessed as reaction time at 12.5 mg/kg, ip measured after 180 mins for 15 secs by hot plate method (reference value: 3.87 +/- 0.38 sec); assay type: functional
Rattus norvegicus [16] = experiment: Antiinflammatory activity in Sprague-Dawley rat model of carrageenan-induced thermal hyperalgesia assessed as paw withdrawal latency pressure at 50 mg/kg, po administered 1 hr prior to carrageenan challenge and measured after 3 hrs by Randall-Selitto test (reference value: 176.84 +/- 8.1 g); assay type: functional
Rattus norvegicus [17] = experiment: Antiinflammatory activity in Sprague-Dawley rat model of carrageenan-induced thermal hyperalgesia assessed as paw withdrawal latency time at 50 mg/kg, po administered 1 hr prior to carrageenan challenge and measured after 5 hrs by planter test (reference value: 7.5 +/- 0.74 sec); assay type: functional
Rattus norvegicus [18] = experiment: Antiinflammatory activity in Sprague-Dawley rat model of carrageenan-induced thermal hyperalgesia assessed as paw withdrawal latency pressure at 50 mg/kg, po administered 1 hr prior to carrageenan challenge and measured after 3 hrs by Randall-Selitto test (reference value: […] g); assay type: functional
Rattus norvegicus [19] = experiment: Antiinflammatory activity in Sprague-Dawley rat model of carrageenan-induced thermal hyperalgesia assessed as paw withdrawal latency time at 50 mg/kg, po administered 1 hr prior to carrageenan challenge and measured after 4 hrs by planter test (reference value: 5.47 +/- 0.84 sec); assay type: functional
Rattus norvegicus [20] = experiment: Analgesic activity in Wistar albino rat assessed as reaction time at 12.5 mg/kg, ip measured after 30 mins for 15 secs by hot plate method (reference value: 4.21 +/- 0.41 sec); assay type: functional
Rattus norvegicus [21] = experiment: Antiinflammatory activity in Sprague-Dawley rat model of carrageenan-induced thermal hyperalgesia assessed as paw withdrawal latency pressure at 50 mg/kg, po administered 1 hr prior to carrageenan challenge and measured after 3 hrs by Von-frey test (reference value: 146.61 +/- 1.58 g); assay type: functional
Rattus norvegicus [22] = experiment: Antiinflammatory activity in Sprague-Dawley rat model of carrageenan-induced thermal hyperalgesia assessed as paw withdrawal latency pressure at 50 mg/kg, po administered 1 hr prior to carrageenan challenge and measured after 1 hr by Randall-Selitto test (reference value: 246.55 +/- 1.05 g); assay type: functional
Rattus norvegicus [23] = experiment: Antiinflammatory activity in Sprague-Dawley rat model of carrageenan-induced thermal hyperalgesia assessed as paw withdrawal latency time at 50 mg/kg, po administered 1 hr prior to carrageenan challenge and measured after 2 hrs by planter test (reference value: 6.17 +/- 0.58 sec); assay type: functional
Rattus norvegicus [24] = experiment: Antiinflammatory activity in Sprague-Dawley rat model of carrageenan-induced thermal hyperalgesia assessed as paw withdrawal latency time at 50 mg/kg, po administered 1 hr prior to carrageenan challenge and measured after 3 hrs by planter test (reference value: 4.13 +/- 0.45 sec); assay type: functional
Rattus norvegicus [25] = experiment: Antiinflammatory activity in Wistar albino rat assessed as reduction in carrageenan-induced paw volume at 12.5 mg/kg, ip measured after 2 hrs by plethysmometric method (reference value: 1.58 +/- 0.21 ml); assay type: functional
Rattus norvegicus [26] = experiment: Antiinflammatory activity in Wistar albino rat assessed as reduction in carrageenan-induced paw edema at 25 mg/kg, ip measured after 2 hrs by plethysmometric method (reference value: 1.58 +/- 0.21 ml); assay type: functional
Rattus norvegicus [27] = experiment: Antiinflammatory activity in Sprague-Dawley rat model of carrageenan-induced thermal hyperalgesia assessed as paw withdrawal latency pressure at 50 mg/kg, po administered 1 hr prior to carrageenan challenge and measured after 5 hrs by Von-frey test (reference value: 169.58 +/- 4.26 g); assay type: functional
Rattus norvegicus [28] = experiment: Antiinflammatory activity in Sprague-Dawley rat model of carrageenan-induced thermal hyperalgesia assessed as paw withdrawal latency pressure at 50 mg/kg, po administered 1 hr prior to carrageenan challenge and measured after 1 hr by Von-frey test (reference value: 159.88 +/- 4.66 g); assay type: functional
Rattus norvegicus [29] = experiment: Antiinflammatory activity in Sprague-Dawley rat model of carrageenan-induced thermal hyperalgesia assessed as paw withdrawal latency time at 50 mg/kg, po administered 1 hr prior to carrageenan challenge and measured after 1 hr by planter test (reference value: 8.88 +/- 0.52 sec); assay type: functional
Rattus norvegicus [30] = experiment: Antiinflammatory activity in Sprague-Dawley rat model of carrageenan-induced thermal hyperalgesia assessed as paw withdrawal latency pressure at 50 mg/kg, po administered 1 hr prior to carrageenan challenge and measured after 2 hrs by Randall-Selitto test (reference value: 231.13 +/- 3.15 g); assay type: functional

SMILES: O=C1C=C(Nc2cc(Cl)ccc2F)CCC1
inhibition [1]: 32% | inhibition [2]: 47.4%

SMILES: O=C1C=C(Nc2ccccc2)CCC1
inhibition [1]: 19.7% | inhibition [2]: 41.9%

SMILES: Cc1ccc(-c2cc(C(F)(F)F)nn2-c2ccc(S(N)(=O)=O)cc2)cc1 [CELECOXIB]
Time (Rattus norvegicus [3]): 12.08 s | Activity (Rattus norvegicus [4]): 1.34 mL | Time (Rattus norvegicus [5]): 8.93 s | Activity (Rattus norvegicus [6]): 1.16 mL | Time (Rattus norvegicus [7]): 10.98 s | Activity (Rattus norvegicus [8]): 1.3 mL | Time (Rattus norvegicus [9]): 8.93 s | Time (Rattus norvegicus [10]): 10.87 s | Activity (Rattus norvegicus [11]): 176.87 g | Time (Rattus norvegicus [12]): 6.34 s | Activity (Rattus norvegicus [13]): 1.36 mL | Activity (Rattus norvegicus [14]): 176.63 g | Time (Rattus norvegicus [15]): 9.92 s | Activity (Rattus norvegicus [16]): 270.66 g | Time (Rattus norvegicus [17]): 9.22 s | Activity (Rattus norvegicus [18]): 269.55 g | Time (Rattus norvegicus [19]): 8.36 s | Time (Rattus norvegicus [20]): 5.75 s | Activity (Rattus norvegicus [21]): 176.87 g | Activity (Rattus norvegicus [22]): 270.89 g | Time (Rattus norvegicus [23]): 10.98 s | Time (Rattus norvegicus [24]): 9.48 s | Activity (Rattus norvegicus [25]): 1.38 mL | Activity (Rattus norvegicus [26]): 1.23 mL | Activity (Rattus norvegicus [27]): 180.82 g | Activity (Rattus norvegicus [28]): 176.45 g | Time (Rattus norvegicus [29]): 11.54 s | Activity (Rattus norvegicus [30]): 273.46 g

SMILES: O=C1C=C(Nc2nc3ccccc3s2)CCC1
inhibition [1]: 5.14% | inhibition [2]: 34%

SMILES: CC(=O)c1ccc(NC2=CC(=O)CCC2)cc1
inhibition [1]: 65.5% | inhibition [2]: 41.9%

SMILES: N#Cc1ccc(NC2=CC(=O)CCC2)cc1
inhibition [1]: 46.5% | inhibition [2]: 47.1%

SMILES: CC1(C)CC(=O)C=C(Nc2ccc(F)cc2)C1
inhibition [1]: 34% | inhibition [2]: 44.5%

SMILES: CC1(C)CC(=O)C=C(NCc2ccco2)C1
inhibition [1]: 28.6% | inhibition [2]: 43.9%

The next lines start with the values.

inhibition [1]: 11.2% | inhibition [2]: 34.2%
SMILES: Cc1ccc(NC2=CC(=O)CCC2)cc1

inhibition [1]: 10.7% | inhibition [2]: 36.6%
SMILES: COc1ccc(NC2=CC(=O)CCC2)cc1

inhibition [1]: 14.3% | inhibition [2]: 55.6%
SMILES: O=C1C=C(Nc2ccc(F)cc2)CCC1

inhibition [1]: 12.8% | inhibition [2]: 27.8%
SMILES: CSc1ccc(NC2=CC(=O)CCC2)cc1
